Holding throughout (test): inhibition of tumour cell growth, NCI panel, 48 h
Experiment [1] concerns 786-0 renal.
The test system of experiment [2] is ACHN renal.
The subject of experiment [3] is DU-145 prostate.
Experiment [4] deals with HCT-15 colon.
In experiment [5] the test system is HT29 colon.
The test system of experiment [6] is KM12 colon.
In experiment [7] the test system is MOLT-4 leukemia.
Experiment [8] deals with NCI/ADR-RES ovarian.
Experiment [9] concerns OVCAR-8 ovarian.
Experiment [10] deals with SF-268 CNS.
Experiment [11] has as its system SF-295 CNS.
Experiment [12] has as its system SK-MEL-2 melanoma.
Experiment [13] relates to SK-MEL-5 melanoma.
The test system of experiment [14] is TK-10 renal.
For experiment [15], the system named is U251 CNS.
Experiment [16] concerns UO-31 renal.
Experiment [17] has as its system NCI-H226 lung.
In experiment [18] the test system is HCC-2998 colon.

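Briefly, cells in 96-well plates were exposed to five compound concentrations for 48 h, and endpoints were estimated by linear interpolation. TGI is the concentration that stops growth completely.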 Bounds are passed on as bounds.

In the case of `OC[C@H]1O[C@@H]2O[C@@](COCc3ccccc3)([C@H](OCc3ccccc3)[C@H]2O)[C@@H]1OCc1ccccc1`, the TGI in [1] was determined as 30.7 µM; in experiment [2], 31.1 µM; in experiment [3] it was 30.1 µM; in [4] it was 36.1 µM; in experiment [5], 17.3 µM; in [6], 32.1 µM. The TGI in [7] stood at 21.9 µM; in experiment [8], 36.1 µM; in experiment [9] it was 29.1 µM; in [10], 32.3 µM; in [11], 28.8 µM; in experiment [12], 32 µM. Also, the TGI in [13] was 29.2 µM; in experiment [14] it was 33.3 µM; in experiment [15] it was 29.5 µM; in experiment [16], 29.4 µM.

Take `CN1CCOC1c1ccccc1O` (stereo not given): the TGI in experiment [1], in [2], in experiment [4], in [5], in experiment [6] and in [7] was > 100 µM in each case. Further, the TGI in [17], in experiment [8], in experiment [9], in experiment [10], in [11] and in [12] was > 100 µM throughout. Further, the TGI in [13], in experiment [14], in experiment [15] and in [16] was > 100 µM in each case.

For the compound `O=C1OCC/C1=N/O`, the TGI in [1], in experiment [2], in [18], in experiment [4], in experiment [5] and in experiment [6] was > 100 µM in each case. Further, the TGI in [7], in experiment [17], in experiment [9], in experiment [10], in experiment [11] and in experiment [12] was > 100 µM each time. Also, the TGI in experiment [13], in experiment [14], in experiment [15] and in experiment [16] was > 100 µM each time.

On to `CC1(C)OC[C@@H](O)[C@H](C#N)CO1`, for which the TGI in experiment [1], in experiment [2], in [3], in [18], in experiment [4] and in experiment [5] was > 100 µM each time. In addition, the TGI in experiment [6], in [7], in experiment [17], in experiment [9], in experiment [10] and in experiment [11] was > 100 µM in each case. The TGI in experiment [12], in experiment [13], in experiment [14], in experiment [15] and in [16] was > 100 µM in each case.

Consider `COC(C)(C)C1(O)CC[C@@H](C)CC1=O` (stereo not given in full), for which the TGI in [1], in [2], in experiment [3], in [18], in experiment [4] and in experiment [5] was > 100 µM in each case. The TGI in experiment [6], in experiment [7], in [9], in [10], in [11] and in experiment [13] was > 100 µM throughout. Moreover, the TGI in experiment [14], in experiment [15] and in experiment [16] was > 100 µM in each case.

For `O=C1C=C/C(=N\N=C(c2ccccc2)c2ccccc2)O1`, the TGI in [1], in experiment [3], in experiment [18], in experiment [4], in experiment [5] and in experiment [6] was > 10 µM each time. Moreover, the TGI in experiment [7], in [9], in experiment [10], in experiment [11], in experiment [13] and in experiment [14] was > 10 µM in each case.

Take `O=C(O)[C@H]1CCCN1CP(=O)(O)CN1CCC[C@@H]1C(=O)O`: the TGI in experiment [1], in [2], in [3], in experiment [4], in experiment [5] and in [6] was > 100 µM each time. Further, the TGI in experiment [7], in experiment [8], in experiment [9], in experiment [10], in experiment [11] and in experiment [12] was > 100 µM each time. In addition, the TGI in [13], in experiment [15] and in [16] was > 100 µM throughout.

Turning to `NS(=O)(=O)c1ccc(NC(=S)/N=C/C2=C(O)c3ccccc3C2=O)cc1`, the TGI in experiment [1], in experiment [2], in experiment [3], in experiment [18], in experiment [4] and in experiment [6] was > 100 µM each time. Further, the TGI in experiment [7], in experiment [10], in [11], in [12], in [13] and in experiment [14] was > 100 µM in each case. For the same compound, the TGI in experiment [15] was > 100 µM; in [16] it was 85.6 µM.

In the case of `BrC(=C(c1ccc(OC2CCCCO2)cc1)c1ccc(OC2CCCCO2)cc1)c1ccccc1` (stereo not given), the TGI in [1], in experiment [3], in [4], in [5], in experiment [6] and in experiment [7] was > 100 µM each time. In addition, the TGI in experiment [17], in [8], in experiment [9], in experiment [10], in experiment [11] and in experiment [14] was > 100 µM throughout. Further, the TGI in experiment [15] and in [16] was > 100 µM in each case.
